Tests used:
Rattus norvegicus [1] = assay: Effective dose required to cause 50% fall in mean blood pressure (BP) […] of urethane anesthetized rats after iv administration of compound; assay type: functional
[2] = biological target: Muscarinic acetylcholine receptor; assay: Displacement of [3H]quinuclidinyl benzilate(QNB) binding from muscarinic receptors of rat cerebral cortex; 2000-4800; assay type: tissue-based
Rattus norvegicus [3] = assay: Dose required to produce a change in the mean power spectrum of EEG equivalent to that of a standard dose (0.32 mg/Kg i.v.) of arecoline after iv administration of compound; assay type: functional
[4] = Ratio of change in mean blood pressure (BP) to that of mean power spectrum of EEG; assay type: functional
[5] = biological target: Muscarinic acetylcholine receptor; assay: Displacement of [3H]- oxotremorine-M (OXO-M) binding from muscarinic receptors of rat cerebral cortex; 10-30; assay type: tissue-based
[6] = biological target: Muscarinic acetylcholine receptor (Rattus norvegicus) (UniProt P08482+P08483+P08485+P08911+P10980); assay: Relative affinity of oxotremorine-M (OXO-M) and [3H]quinuclidinyl benzilate (QNB) for muscarinic receptors; assay type: protein assay
[7] = biological target: Muscarinic acetylcholine receptor; assay: Displacement of [3H]quinuclidinyl benzilate(QNB) binding from muscarinic receptors of rat cerebral cortex; 3400-8000; assay type: tissue-based
[8] = biological target: Muscarinic acetylcholine receptor; assay: Displacement of [3H]- oxotremorine-M (OXO-M) binding from muscarinic receptors of rat cerebral cortex; 155-265; assay type: tissue-based
[9] = biological target: Muscarinic acetylcholine receptor; assay: Displacement of [3H]quinuclidinyl benzilate(QNB) binding from muscarinic receptors of rat cerebral cortex; 3400-10000; assay type: tissue-based
[10] = biological target: Muscarinic acetylcholine receptor; assay: Displacement of [3H]- oxotremorine-M (OXO-M) binding from muscarinic receptors of rat cerebral cortex; 65-110; assay type: tissue-based
[11] = biological target: Muscarinic acetylcholine receptor; assay: Displacement of [3H]quinuclidinyl benzilate(QNB) binding from muscarinic receptors of rat cerebral cortex; 2500-5600; assay type: tissue-based
[12] = biological target: Muscarinic acetylcholine receptor; assay: Displacement of [3H]- oxotremorine-M (OXO-M) binding from muscarinic receptors of rat cerebral cortex; assay type: tissue-based
[13] = biological target: Muscarinic acetylcholine receptor; assay: Displacement of [3H]- oxotremorine-M (OXO-M) binding from muscarinic receptors of rat cerebral cortex; 205-310; assay type: tissue-based
[14] = biological target: Muscarinic acetylcholine receptor; assay: Displacement of [3H]quinuclidinyl benzilate(QNB) binding from muscarinic receptors of rat cerebral cortex; assay type: tissue-based
[15] = biological target: Muscarinic acetylcholine receptor; assay: Displacement of [3H]- oxotremorine-M (OXO-M) binding from muscarinic receptors of rat cerebral cortex; 44-48; assay type: tissue-based
[16] = biological target: Muscarinic acetylcholine receptor; assay: Displacement of [3H]quinuclidinyl benzilate(QNB) binding from muscarinic receptors of rat cerebral cortex; 2600-4400; assay type: tissue-based
[17] = biological target: Muscarinic acetylcholine receptor; assay: Displacement of [3H]- oxotremorine-M (OXO-M) binding from muscarinic receptors of rat cerebral cortex; 12-62; assay type: tissue-based
[18] = biological target: Muscarinic acetylcholine receptor; assay: Displacement of [3H]quinuclidinyl benzilate(QNB) binding from muscarinic receptors of rat cerebral cortex; 1400-2700; assay type: tissue-based
[19] = biological target: Muscarinic acetylcholine receptor; assay: Displacement of [3H]quinuclidinyl benzilate(QNB) binding from muscarinic receptors of rat cerebral cortex; 4800-6300; assay type: tissue-based
[20] = biological target: Muscarinic acetylcholine receptor; assay: Displacement of [3H]- oxotremorine-M (OXO-M) binding from muscarinic receptors of rat cerebral cortex; 44-170; assay type: tissue-based
[21] = biological target: Muscarinic acetylcholine receptor; assay: Displacement of [3H]quinuclidinyl benzilate(QNB) binding from muscarinic receptors of rat cerebral cortex; 36000-40000; assay type: tissue-based
[22] = biological target: Muscarinic acetylcholine receptor; assay: Displacement of [3H]- oxotremorine-M (OXO-M) binding from muscarinic receptors of rat cerebral cortex; 90-155; assay type: tissue-based
[23] = biological target: Muscarinic acetylcholine receptor; assay: Displacement of [3H]- oxotremorine-M (OXO-M) binding from muscarinic receptors of rat cerebral cortex; 66-83; assay type: tissue-based
[24] = biological target: Muscarinic acetylcholine receptor; assay: Displacement of [3H]quinuclidinyl benzilate(QNB) binding from muscarinic receptors of rat cerebral cortex; 1400-2900; assay type: tissue-based
[25] = biological target: Muscarinic acetylcholine receptor; assay: Displacement of [3H]quinuclidinyl benzilate(QNB) binding from muscarinic receptors of rat cerebral cortex; 2700-3000; assay type: tissue-based
[26] = biological target: Muscarinic acetylcholine receptor; assay: Displacement of [3H]- oxotremorine-M (OXO-M) binding from muscarinic receptors of rat cerebral cortex; 230-335; assay type: tissue-based
[27] = biological target: Muscarinic acetylcholine receptor; assay: Displacement of [3H]- oxotremorine-M (OXO-M) binding from muscarinic receptors of rat cerebral cortex; 50-65; assay type: tissue-based
[28] = biological target: Muscarinic acetylcholine receptor; assay: Displacement of [3H]quinuclidinyl benzilate(QNB) binding from muscarinic receptors of rat cerebral cortex; 12500-16500; assay type: tissue-based
[29] = biological target: Muscarinic acetylcholine receptor; assay: Displacement of [3H]quinuclidinyl benzilate(QNB) binding from muscarinic receptors of rat cerebral cortex; 6200-9000; assay type: tissue-based
[30] = biological target: Muscarinic acetylcholine receptor; assay: Displacement of [3H]- oxotremorine-M (OXO-M) binding from muscarinic receptors of rat cerebral cortex; 83-128; assay type: tissue-based

CO/N=C/[C@H]1CN2CC[C@H]1C2
ED50 (Rattus norvegicus [1]): 0.0031 mg/kg
IC50 [2]: 3100 nM
ED Arec (Rattus norvegicus [3]): 0.0021 mg/kg
Ratio [4]: 1.5
IC50 [5]: 15 nM

CC/C(=N\OC)[C@H]1CN2CC[C@H]1C2
Ratio [6]: 25
IC50 [7]: 5200 nM
IC50 [8]: 208 nM

CO/N=C/C1CN2CCC1CC2 (stereo not drawn)
Ratio [6]: 61
IC50 [9]: 5800 nM
IC50 [10]: 95 nM

CCO/N=C/[C@H]1CN2CC[C@H]1C2
Ratio [6]: 23
ED50 (Rattus norvegicus [1]): > 1.8 mg/kg
ED Arec (Rattus norvegicus [3]): 0.23 mg/kg
Ratio [4]: >7.8
IC50 [11]: 3700 nM
IC50 [12]: 160 nM

CCCCO/N=C/[C@H]1CN2CC[C@H]1C2
Ratio [6]: 14
IC50 [13]: 252 nM
IC50 [14]: 3600 nM

CO/N=C(\C)C12CCCN(CC1)C2 (stereo not drawn)
Ratio [6]: 74
IC50 [15]: 46 nM
IC50 [16]: 3400 nM

COC(=O)C1CN2CCC1CC2 (stereo not drawn)
Ratio [6]: 48

C#CCO/N=C/[C@H]1CN2CC[C@H]1C2
IC50 [17]: 25 nM
Ratio [6]: 78
ED50 (Rattus norvegicus [1]): 0.17 mg/kg
IC50 [18]: 1950 nM
ED Arec (Rattus norvegicus [3]): 0.016 mg/kg
Ratio [4]: 10.6

CO/N=C/C12CCCN(CC1)C2 (stereo not drawn)
Ratio [6]: 87
IC50 [19]: 5200 nM
IC50 [20]: 60 nM

CO/N=C/C12CCN(CC1)C2
Ratio [6]: 321
IC50 [21]: 38000 nM
IC50 [22]: 118 nM

CO/N=C(\C)C1CN2CCC1CC2 (stereo not drawn)
Ratio [6]: 29
IC50 [23]: 69 nM
IC50 [24]: 2000 nM

CCCO/N=C/[C@H]1CN2CC[C@H]1C2
Ratio [6]: 10
IC50 [25]: 2900 nM
IC50 [26]: 278 nM

CO/N=C(\C)C12CCN(CC1)C2
Ratio [6]: 255
IC50 [27]: 55 nM
IC50 [28]: 14000 nM

CO/N=C(\C)[C@H]1CN2CC[C@H]1C2
Ratio [6]: 76
IC50 [29]: 7500 nM
IC50 [30]: 99 nM

Reference: ChEMBL document CHEMBL1126440, “Design and synthesis of azabicyclic muscarinic agonists incorporating an oxime ether functionality” (Bioorg Med Chem Lett, 1992)
